Where two headings read alike, the source gives them in different places.
Biological target: recombinant CaMKIIδ (Homo sapiens (Human), UniProt Q13557)
Experiment: CaMKIIδ biochemical assay (HTRF)
Description: CaMKIIδ Biochemical Assay
The biochemical activity of recombinant CaMKIIδ was measured by monitoring the phosphorylation of a target peptide using Homogenous Time Resolved Fluorescence (HTRF) technology from CisBio Bioassays.

[1] = 10 pM CaMKIIδ, 110 nM calmodulin, 12 μM ATP, 1 hour, read-out: CAMKIID-HTRF-384V2 (IC50 - nM)

Row | IC50 [1] [nM] | IC50 (potency against CamKIIδ acquired with in-house assays, reference for selectivity values, read-out: CamKIIδ potency (Table 1)) [nM] | Compound
1 | 2.42 | – | CCN1CCC[C@H]1CNC(=O)c1cc(-c2cnn3ccc(-c4cccs4)nc23)nc(N2CC(OC)C2)c1 [Example 256, (S)—N-((1-ethylpyrrolidin-2-yl)methyl)-2-(3-methoxyazetidin-1-yl)-6-(5-(thiophen-2-yl)pyrazolo[1,5-a]pyrimidin-3-yl)isonicotinamide]
2 | 284 | – | COC1CN(c2cc(C(=O)NC[C@@H]3CCCN3C)cc(-c3cnn4ccc(-c5cccs5)nc34)n2)C1 [Example 257, (S)-2-(3-methoxyazetidin-1-yl)-N-((1-methylpyrrolidin-2-yl)methyl)-6-(5-(thiophen-2-yl)pyrazolo[1,5-a]pyrimidin-3-yl)isonicotinamide]
3 | 1.07 | – | CCN(CC)CCNC(=O)c1cc(-c2cnn3ccc(-c4cccs4)nc23)nc(N2CC(C)(O)C2)c1 [Example 258, N-(2-(diethylamino)ethyl)-2-(3-hydroxy-3-methylazetidin-1-yl)-6-(5-(thiophen-2-yl)pyrazolo[1,5-a]pyrimidin-3-yl)isonicotinamide]
4 | 1.02 | – | CCN(CC)CCNC(=O)c1cc(NCCO)nc(-c2cnn3ccc(-c4cccs4)nc23)c1 [Example 259, N-(2-(diethylamino)ethyl)-2-((2-hydroxyethyl)amino)-6-(5-(thiophen-2-yl)pyrazolo[1,5-a]pyrimidin-3-yl)isonicotinamide]
5 | 1.71 | – | CCN(CC)c1cc(C(=O)NC[C@H](C)N(CC)CC)cc(-c2cnn3ccc(-c4cccs4)nc23)n1 [Example 260, (S)-2-(diethylamino)-N-(2-(diethylamino)propyl)-6-(5-(thiophen-2-yl)pyrazolo[1,5-a]pyrimidin-3-yl)isonicotinamide]
6 | 0.54 | – | CCNc1cc(C(=O)NC[C@H](C)N(CC)CC)cc(-c2cnn3ccc(-c4cccs4)nc23)n1 [Example 261, (S)—N-(2-(diethylamino)propyl)-2-(ethylamino)-6-(5-(thiophen-2-yl)pyrazolo[1,5-a]pyrimidin-3-yl)isonicotinamide]
7 | 6.97 | – | CCN(CC)[C@@H](C)CNC(=O)c1cc(-c2cnn3ccc(-c4ccncc4)nc23)nc(N2CC(OC)C2)c1 [Example 262, (S)—N-(2-(diethylamino)propyl)-2-(3-methoxyazetidin-1-yl)-6-(5-(pyridin-4-yl)pyrazolo[1,5-a]pyrimidin-3-yl)isonicotinamide]
8 | 0.51 | – | CCN(CC)[C@@H](C)CNC(=O)c1cc(-c2cnn3ccc(-c4cccs4)nc23)nc(N2CCC(C(N)=O)CC2)c1 [Example 263, (S)-2-(4-carbamoylpiperidin-1-yl)-N-(2-(diethylamino)propyl)-6-(5-(thiophen-2-yl)pyrazolo[1,5-a]pyrimidin-3-yl)isonicotinamide]
9 | 0.2 | – | CCN(CC)[C@@H](C)CNC(=O)c1cc(-c2cnn3ccc(-c4cccs4)nc23)nc(N2CCO[C@H](CO)C2)c1 [Example 264, N—((S)-2-(diethylamino)propyl)-2-((S)-2-(hydroxymethyl)morpholino)-6-(5-(thiophen-2-yl)pyrazolo[1,5-a]pyrimidin-3-yl)isonicotinamide]
10 | 0.42 | – | CCN(CC)[C@@H](C)CNC(=O)c1cc(-c2cnn3ccc(-c4cccs4)nc23)nc(N2CC[C@H]2COC)c1 [Example 265, N—((S)-2-(diethylamino)propyl)-2-((S)-2-(methoxymethyl)azetidin-1-yl)-6-(5-(thiophen-2-yl)pyrazolo[1,5-a]pyrimidin-3-yl)isonicotinamide]
11 | 0.46 | – | CCN(CC)[C@@H](C)CNC(=O)c1cc(-c2cnn3ccc(-c4cccs4)nc23)nc(N2CC[C@@H]2COC)c1 [Example 266, N—((S)-2-(diethylamino)propyl)-2-((R)-2-(methoxymethyl)azetidin-1-yl)-6-(5-(thiophen-2-yl)pyrazolo[1,5-a]pyrimidin-3-yl)isonicotinamide]
12 | 0.28 | – | CCN(CC)[C@@H](C)CNC(=O)c1cc(-c2cnn3ccc(-c4cccs4)nc23)nc(N2CC[C@@H]2CO)c1 [Example 267, N—((S)-2-(diethylamino)propyl)-2-((R)-2-(hydroxymethyl)azetidin-1-yl)-6-(5-(thiophen-2-yl)pyrazolo[1,5-a]pyrimidin-3-yl)isonicotinamide]
13 | 0.06 | – | CCN(CC)[C@@H](C)CNC(=O)c1cc(-c2cnn3ccc(-c4cccs4)nc23)nc(N2CC[C@H]2CO)c1 [Example 268, N—((S)-2-(diethylamino)propyl)-2-((S)-2-(hydroxymethyl)azetidin-1-yl)-6-(5-(thiophen-2-yl)pyrazolo[1,5-a]pyrimidin-3-yl)isonicotinamide]
14 | 6.05 | – | CCN(CC)[C@@H](C)CNC(=O)c1cc(-c2cnn3ccc(-c4cccs4)nc23)nc(N2CCC[C@@H]2C(N)=O)c1 [Example 269, 2-((R)-2-carbamoylpyrrolidin-1-yl)-N—((S)-2-(diethylamino)propyl)-6-(5-(thiophen-2-yl)pyrazolo[1,5-a]pyrimidin-3-yl)isonicotinamide]
15 | 1.91 | – | CCN(CC)[C@@H](C)CNC(=O)c1cc(-c2cnn3ccc(-c4cccs4)nc23)nc(N2CCC[C@H]2C(N)=O)c1 [Example 270, 2-((S)-2-carbamoylpyrrolidin-1-yl)-N—((S)-2-(diethylamino)propyl)-6-(5-(thiophen-2-yl)pyrazolo[1,5-a]pyrimidin-3-yl)isonicotinamide]
16 | 0.31 | – | CCN(CC)[C@@H](C)CNC(=O)c1cc(-c2cnn3ccc(-c4cccs4)nc23)nc(N2CCC[C@H]2CO)c1 [Example 271, N—((S)-2-(diethylamino)propyl)-2-((S)-2-(hydroxymethyl)pyrrolidin-1-yl)-6-(5-(thiophen-2-yl)pyrazolo[1,5-a]pyrimidin-3-yl)isonicotinamide]
17 | 0.14 | – | CCN(CC)[C@@H](C)CNC(=O)c1cc(-c2cnn3ccc(-c4cccs4)nc23)nc(N2CCC[C@@H]2CO)c1 [Example 272, N—((S)-2-(diethylamino)propyl)-2-((R)-2-(hydroxymethyl)pyrrolidin-1-yl)-6-(5-(thiophen-2-yl)pyrazolo[1,5-a]pyrimidin-3-yl)isonicotinamide]
18 | 1.43 | – | CCN(CC)[C@@H](C)CNC(=O)c1cc(-c2cnn3ccc(-c4cccs4)nc23)nc(N2CCC[C@@H]2COC)c1 [Example 273, N—((S)-2-(diethylamino)propyl)-2-((R)-2-(methoxymethyl)pyrrolidin-1-yl)-6-(5-(thiophen-2-yl)pyrazolo[1,5-a]pyrimidin-3-yl)isonicotinamide]
19 | 0.63 | – | CCN(CC)[C@@H](C)CNC(=O)c1cc(-c2cnn3ccc(-c4cccs4)nc23)nc(N2CCC[C@H]2COC)c1 [Example 274, N—((S)-2-(diethylamino)propyl)-2-((S)-2-(methoxymethyl)pyrrolidin-1-yl)-6-(5-(thiophen-2-yl)pyrazolo[1,5-a]pyrimidin-3-yl)isonicotinamide]
20 | 0.2 | 0.43 | CCN(CC)[C@@H](C)CNC(=O)c1cc(-c2cnn3ccc(-c4cccs4)nc23)nc(N2CC[C@H]2C(=O)NC)c1 [Example 275, N—((S)-2-(diethylamino)propyl)-2-((S)-2-(methylcarbamoyl)azetidin-1-yl)-6-(5-(thiophen-2-yl)pyrazolo[1,5-a]pyrimidin-3-yl)isonicotinamide]
21 | 0.22 | – | CCNC(=O)[C@@H]1CCN1c1cc(C(=O)NC[C@H](C)N(CC)CC)cc(-c2cnn3ccc(-c4cccs4)nc23)n1 [Example 276, N—((S)-2-(diethylamino)propyl)-2-((S)-2-(ethylcarbamoyl)azetidin-1-yl)-6-(5-(thiophen-2-yl)pyrazolo[1,5-a]pyrimidin-3-yl)isonicotinamide]
22 | 0.51 | – | CCN(CC)[C@@H](C)CNC(=O)c1cc(-c2cnn3ccc(-c4cccs4)nc23)nc(N2CC[C@H]2C(=O)NC2CC2)c1 [Example 277, 2-((S)-2-(cyclopropylcarbamoyl)azetidin-1-yl)-N—((S)-2-(diethylamino)propyl)-6-(5-(thiophen-2-yl)pyrazolo[1,5-a]pyrimidin-3-yl)isonicotinamide]
23 | 0.41 | – | CCN(CC)[C@@H](C)CNC(=O)c1cc(-c2cnn3ccc(-c4cccs4)nc23)nc(N2CC[C@H]2C(=O)NCC2CC2)c1 [Example 278, 2-((S)-2-((cyclopropylmethyl)carbamoyl)azetidin-1-yl)-N—((S)-2-(diethylamino)propyl)-6-(5-(thiophen-2-yl)pyrazolo[1,5-a]pyrimidin-3-yl)isonicotinamide]
24 | 0.17 | – | CCN(CC)[C@@H](C)CNC(=O)c1cc(-c2cnn3ccc(-c4cccs4)nc23)nc(N2CC[C@H]2C(=O)N(C)C)c1 [Example 279, N—((S)-2-(diethylamino)propyl)-2-((S)-2-(dimethylcarbamoyl)azetidin-1-yl)-6-(5-(thiophen-2-yl)pyrazolo[1,5-a]pyrimidin-3-yl)isonicotinamide]
25 | 0.45 | – | CCN(CC)C(=O)[C@@H]1CCN1c1cc(C(=O)NC[C@H](C)N(CC)CC)cc(-c2cnn3ccc(-c4cccs4)nc23)n1 [Example 280, N—((S)-2-(diethylamino)propyl)-2-((S)-2-(diethylcarbamoyl)azetidin-1-yl)-6-(5-(thiophen-2-yl)pyrazolo[1,5-a]pyrimidin-3-yl)isonicotinamide]
26 | 0.46 | – | CCN(CC)[C@@H](C)CNC(=O)c1cc(-c2cnn3ccc(-c4cccs4)nc23)nc(N2CC[C@H]2C(=O)NCCF)c1 [Example 281, N—((S)-2-(diethylamino)propyl)-2-((S)-2-((2-fluoroethyl)carbamoyl)azetidin-1-yl)-6-(5-(thiophen-2-yl)pyrazolo[1,5-a]pyrimidin-3-yl)isonicotinamide]
27 | 0.47 | – | CCN(CC)[C@@H](C)CNC(=O)c1cc(-c2cnn3ccc(-c4cccs4)nc23)nc(N2CC[C@H]2C(=O)NCC(F)F)c1 [Example 282, N—((S)-2-(diethylamino)propyl)-2-((S)-2-((2,2-difluoroethyl)carbamoyl)azetidin-1-yl)-6-(5-(thiophen-2-yl)pyrazolo[1,5-a]pyrimidin-3-yl)isonicotinamide]

Reference: patent publication US10100058B2, “Fused heterocyclic compounds as CaM kinase inhibitors” (Gilead Sciences, Inc., priority 2016, dated 2018)
